Data on two molecules can be found in patent US20110105576A1 (priority 2008, published 2011).

Where two headings read alike, the source gives them in different places.

The subject of experiment [1] is Fusarium graminearum (ear rot of maize). The experiment is classed as cell-based. The conditions noted are these: solo, 48 hrs.
The test system is the same in experiment [2]. The experiment is classed as cell-based. The conditions noted are these: solo, 48 hrs. This is another data set of the same source.

Regarding `CCCN(CCOc1c(Cl)cc(Cl)cc1Cl)C(=O)n1ccnc1` [A, prochloraz], the “Observed control in %” value in experiment [1] (0.004 ppm (mg a.i./liter final medium)) came to 0%; in experiment [1] (0.008 ppm) it was 3%; in experiment [1] (0.016 ppm) it was 6%; in experiment [1] (0.031 ppm) it was 11%; in experiment [1] (0.063 ppm), 25%; in experiment [1] (0.125 ppm), 86%. Also, the “Observed control in %” value stood at 94% in experiment [1] (0.25 ppm), 96% in experiment [1] (0.5 ppm), 96% in experiment [1] (1.0 ppm) and 96% in experiment [1] (2.0 ppm).

On to `CC1(C)CCC(Cc2ccc(Cl)cc2)C1(O)Cn1cncn1` (stereo not drawn) [B, metconazole], for which the “Observed control in %” value in experiment [1] (0.008 ppm) came out at 3%; in experiment [1] (0.25 ppm), 93%; in experiment [1] (0.5 ppm) it was 95%; in experiment [1] (2.0 ppm) it was 96%; in experiment [2] (0.008 ppm) it was 3%; in experiment [2] (0.25 ppm), 93%. Further, the “Observed control in %” value in experiment [2] (0.5 ppm) came out at 95%; in experiment [2] (2.0 ppm), 96%.
